Laboratory results from patent publication US7763604B2, “Methods for administration of a farnesyl dibenzodiazepinone” (Thallion Pharma Ceuticals, Inc., priority 2005, dated 2010).

How the values were obtained:
[1] = population pharmacokinetic analysis, monkey (CIV); type: in vivo; parameters: mean clearance: unit not given here; conditions: for mean clearance: monkeys, 14-day continuous infusion
Procedure: (§1) An analysis was performed to derive allometric equations for Formula I pharmacokinetic parameters using Formula I plasma concentration-time data from three species, including mouse, rat, and monkey, and to estimate human pharmacokinetic parameters from those allometric equations.
(§2) Plasma concentrations of Formula I were obtained from mice, rats, and monkeys following intravenous injection or continuous infusion. Formula I pharmacokinetic parameters in mice, rats, and monkeys were estimated using population pharmacokinetic analysis, a function of the software program NONMEM™ (version 5). Typical population pharmacokinetic parameters for Formula I in humans were extrapolated from allometric equations that were derived from pharmacokinetic parameters estimated in the three animal species.
(§3) A two-compartment model with a first-order elimination from the central compartment adequately described Formula I plasma concentration-time profiles following intravenous bolus injection (30 mg/kg) in mice and rats, 7-day continuous infusion in rats (50 to 170 mg/kg/day), and 14-day continuous infusion in monkeys (5 to 30 mg/kg/day).
Application of a two-compartment model with Michaelis-Menten elimination better described the concentration data in monkeys than the linear model. Because the target concentration in humans is 2 μM, at which linear pharmacokinetics is assumed, all simulations for human plasma concentrations were performed based on a two-compartment model with linear first-order elimination.

[2] = system: P388 murine leukemia cells; test: murine P388 leukemia model, survival; type: in vivo; conditions: group 2, IV 50 mg/kg in PEG-PG formulation, 10 mice per group
Procedure: Formulation: The compound of Formula I is first dissolved in 1 volume of 90% propylene glycol (PG). This is followed by the addition of 2 volumes of 45% polyethylene glycol 400 (PEG 400). The volume ratio of PEG 400/PG/water is respectively 30:30:40. Compound is injected in a volume of 10 mL/kg.
DBA/2 female mice (6 weeks of age) were injected intraperitoneally (IP) with 1×10^6 P388 murine leukemia cells (day 0). […]
Mice body weights were recorded twice a week. Lethality and behaviour of animals were recorded every day. […] The results are expressed as percent of mean survival time of treated animals over the mean survival time of the control group (treated vs control, T/C %) and as increase life span (mean survival time of treated animals minus that of control animals over the mean survival time of the control group; ILS %).

[3] = pharmacokinetics of 14-day CIV infusion in rats; type: in vivo, Sprague-Dawley rats; conditions: calculated at the end of treatment
Procedure: (§4) Sprague-Dawley rats received an intravenous continuous infusion over 14 days of Formula I at 25 mg/kg/day, 50 mg/kg/day, or 75 mg/kg/day at a rate of 2 mL/kg/h for 14 consecutive days (same formulation as in Example 7). Blood was collected from the jugular vein in tubes containing K2 EDTA from 3 rats/sex/group at the following time points: 2, 6, and 12 hours after the start of dosing on Day 1, on Day 2 at 6 hours (approximately 30 hours after the start of dosing), on Days 6 and 10 at 6 hours, and on Day 15, 1 hour prior the end of dosing, and then at 5 min, 15 min, 30 min, 1 h, and 2 h after the end of dosing.

[4] = human pharmacokinetic parameters extrapolated from allometric equations; conditions: estimated from allometric equations
Procedure: as §1, §2
Allometric equations for the pharmacokinetic parameters clearance (CL), volume of distribution (V1 and V2), and inter-compartmental clearance (Q) were derived. The population PK parameters of the compound of Formula I for humans were extrapolated from the allometric equations, and the estimated values are shown in Table 6. Simulated Formula I plasma concentration-time profiles in humans are shown in FIG. 13 and estimated end of infusion concentrations are provided in Table 7.

[5] = toxicity of 14-day infusion in rats; type: in vivo; conditions: all treated and control groups, attributed to the vehicle
Procedure: as §4
The toxicity was due to the vehicle and was attributed to smaller size of infusion vessels, and concurrent catheter tract infection.

[6] = maximum tolerated dose and tolerability of bolus administration in mice; type: in vivo
[7] = toxicity of 14-day continuous intravenous infusion in monkeys; type: in vivo; conditions: 14-day CIV
Procedure: Cynomolgus monkeys received continuous IV infusion over 14 days of Formula I at 5 mg/kg/day, 15 mg/kg/day, or 30 mg/kg/day. The drug was infused intravenously (24 hours/day) into the femoral vein at a dose rate of 2 ml/kg/hour for 14 consecutive days. Blood samples were removed from each monkey on Days 1, 2, 6, 10, and 15 of the treatment period. Monkeys were bled by venipuncture and samples were collected into tubes containing K2EDTA. On Day 1, samples were collected at 2, 6, and 12 hours after initiation of treatment. Additional samples were collected at 30 hours after the start of infusion (Day 2). On Days 6 and 10, samples were collected at approximately 6 hours after the bag changes. At the end of the 14 days of infusion, on Day 15, samples were collected at 1 hour prior to cessation of dose administration, and at 5 min, 30 min, 1 h, 2 h, 4 h, 8 h, and 24 h following cessation of dose administration.

[8] = acute toxicity, 24-hour CIV administration in monkeys; type: in vivo
[9] = population pharmacokinetic analysis, mouse (IV); type: in vivo; conditions: population PK
Procedure: as §1, §2, §3

Compound: CC(C)=CCC/C(C)=C/CC/C(C)=C/CN1C(=O)c2cccc(O)c2Nc2c(O)cc(O)cc21 [Formula I, 10-farnesyl-4,6,8-trihydroxy-dibenzodiazepin-11-one]
- Ke ([1]; Monkey (CIV), population PK): 2.172 h⁻¹
- mean clearance ([1]; 5 mg/kg/day): 0.63
- mean clearance ([1]; 15 mg/kg/day): 0.57
- mean clearance ([1]; 30 mg/kg/day): 0.23
- mice died one day after treatment due to formulation toxicity [2]: 3 mice
- T1/2z ([3]; CIV 25 mg/kg/day): 1.6 h
- T1/2z ([3]; CIV 50 mg/kg/day): 1.2 h
- T1/2z ([3]; CIV 75 mg/kg/day): 1.2 h
- Ke [4]: 1.192 h⁻¹
- Q [4]: 0.032 L/h/kg
- t1/2,α [4]: 30.5 min
- t1/2,β [4]: 13.8 h
- findings at the site of infusion [5]: necrotization and inflammatory lesions at the site of infusion
- tolerability finding ([6]; IP bolus dosing): some intestinal occlusion
- tolerability finding ([6]; SC bolus dosing): swelling and thickening of the skin
- degenerative changes in organs, including the infusion site [7]: No degenerative changes
- effect on body weight, ocular condition, electrocardiographic activity and other parameters [7]: no effect
- side effects [7]: inappetance and a moderate degree of regenerative anemia, were reversible
- compound associated toxicity ([7]; 5 to 30 mg/kg/day): no severe compound associated toxicity
- tolerability ([8]; 35 mg/kg): well tolerated
- tolerability ([8]; 70 mg/kg): well tolerated
- Ke [9]: 8.466 h⁻¹
